The conditions of series [1]: Beems et al., Photochemistry and Photobiology (1987); cited from earlier work.
A short description of series [2]: uptake and clearance in liver (extraction, HPLC). The series is classed as in vivo, DBA/2 Ha Mice. The protocol:
(§1) Uptake and clearance of bchla in tumor and liver were measured by extraction of the tumor or liver tissue with 1:1MeOH:CH2 Cl2, followed by HPLC analysis.

Series [3] is described as follows: cutaneous photosensitivity: response of the foot of the treated mice. Conditions: FIG. 3. The series is classed as in vivo. The protocol: One of the undesirable side effects of photodynamic therapy using certain compounds is cutaneous photosensitivity unrelated to the target biological substrate. Accordingly, the effect of the treatment on the photosensitivity of the foot of the treated mice was measured. The response of the foot was measured as erythema and/or edema (or loss of skin or further damage).

A short description of series [4]: light absorption of bchla. The series is classed as physicochemical. From the text:
Bchla is essentially identical to the chlorophyll-a of higher plants except that ring B is in the dihydro form and the vinyl group in ring A is converted to an acetyl group. The wavelength absorption maximum of bchla is about 780 nm and the extinction coefficient in this region is quite high (E780= 75,000). This long wavelength absorption is advantageous because light penetrates tissues 2-3 times more effectively at a wavelength nearly 800 nm versus lower wavelengths, e.g., 630 nm.
Bacteriochlorophyll-a, obtained at >90% purity from Porphyrin Products (Logan, UT) was dissolved at a concentration of 5 mg/ml in Tween-80 (Sigma) by stirring for several hours or overnight. The resulting solution was mixed with 9 volumes of Hank's buffer solution with agitation until all of the detergent solution was dissolved. Any remaining particulate matter is removed by filtration and the concentration of the final solution is determined spectrophotometrically using a 1:100 dilution in distilled water (OD780= 87.3 for 1 mg/ml of concentrate). In general, if the initial solution of bchla is conducted carefully, the resulting formulation has a concentration of bchla of 0.5 mg/ml.

The next series can be described thus: stability of bchla. The series is classed as physicochemical. From the text: Bchla is readily obtained by extraction from bacterial sources, and is available commercially from Porphyrin Products, Logan, UT.
A further series relates to SMT-F tumors. Description: tumor response to photodynamic treatment in mice transplanted with SMT-F tumors. It counts as in vivo, DBA2/HaD mice. As for the experimental part: DBA2/HaD mice were transplanted with SMT-F tumors. When the subcutaneous tumors reached 4.5-5.5 mm in diameter, the mice, in groups of five, were injected intravenously with the bchla solution of Example 1 in doses of 5-30 mg/kg. At a time 1 hour-5 days later, the tumor, previously shaved and depiliated, plus a margin of 2-3 mm was exposed to radiation of a wavelength in the range 630-800 nm using a Spectraphysics argon dye laser with Exciton LDS751 dye, tunable over the 700-800 nm range or a diode laser--e.g., Spectra Diode emitting in the 750-850 nm range or a Xenon arc lamp filtered with an interference filter to pass 90% of the 700 nm light ±60 nm at dose rates of 75-150 mw/cm^2. When the Xenon system was used, mild hyperthermia resulted (42° C. at 160 mW/cm^2). It is not known whether this temperature rise acts synergistically with bchla as has been shown with HpD and its active fraction.
Tumor response is shown in the table of FIG. 1 for the seventh day after light treatment which indicates regression, and at a time point at least 30 days after light treatment, which would indicate cure, if there had been no regrowth.

The nature of series [5]: uptake and clearance in tumor (extraction, HPLC). It counts as in vivo, DBA/2 Ha Mice. The protocol:
as §1

For series [6], the system named is tumors approximately 1 cm in depth. The experiment in a line: light penetration: necrotic depth in tumors. It counts as in vivo. Conditions: 20 mg/kg, irradiation after 1 hour, 270 J/cm^2 at 780 nm; histology the day following. As for the experimental part:
Comparison was made using bchla at 20 mg/kg with irradiation after 1 hour at 270 J/cm^2 at 780 nm, and DHE at 5 mg/kg after 1 hour at 270 J/cm^2 at 630 nm. Animals with tumors approximately 1 cm in depth were used in the comparison. Histological sections were obtained the day following treatment, fixed and stained.

With `CCC1c2cc3[nH]c4c(c3C)C(=O)C(C(=O)OC)c4c3nc(cc4[nH]c(cc(n2)C1C)c(C(C)=O)c4C)C(C)C3CCC(=O)O` (stereo not shown) [bacteriochlorin-a], the “water solubility compared to bacteriochlorophyll-a” value in series [1] is “enhanced water solubility”.

Regarding `CCC1C2=Cc3c(C)c4c5[n]3[Mg][n]3c(c(C)c(C(C)=O)c3=CC(=N2)C1C)=CC1=NC(=C5C(C(=O)OC)C4=O)C(CCC(=O)O)C1C` (stereo not shown) [bacteriochloro-phyllin-a], in series [1], the “water solubility compared to bacteriochlorophyll-a” value was “enhanced water solubility”.

For the compound `CCC1C2=Cc3c(C)c4c5[n]3[Mg][n]3c(c(C)c(C(C)=O)c3=CC(=N2)C1C)=CC1=NC(=C5C(C(=O)OC)C4=O)C(CCC(=O)OCC=C(C)CCCC(C)CCCC(C)CCCC(C)C)C1C` (stereo not shown) [bchla, Bacteriochlorophyll-a], the “time of partial conversion to bacteriopheophytin in liver” value in series [2] was determined as 2 h. For the same compound, the “sensitivity of the tumor and the skin of the foot over time” value in series [3] was “the sensitivity of the tumor and the skin of the foot declined concomitantly”. For the same compound, in series [4], the wavelength absorption maximum entry was “about 780 nm”. The “extinction coefficient (E780)” value in series [4] (780 nm) is reported as 75,000. The compound further displayed an OD780 in series [4] (for 1 mg/ml of concentrate, Tween-80/Hank's buffer formulation, measured at 1:100 dilution in distilled water) of 87.3. Also, in “stability of bchla”, the oxidation stability entry is given as “readily oxidized, especially in the presence of light”. Also, the stability in vivo entry in “stability of bchla” (in vivo) was “sufficiently stable in vivo to be an effective phototherapeutic agent”. For the same compound, the “loss of magnesium ion in dilute acid” value in “stability of bchla” (presence of dilute acid) was “the magnesium ion is readily removed in the presence of dilute acid”. For the same compound, the tumor response entry was “good response” in the series with SMT-F tumors (5 mg/kg i.v., irradiated after 2 hours, 670-790 nm range) and “good response” in the series on SMT-F tumors (10 mg/kg i.v., irradiated 24 hours after injection, 680-780 nm). In addition, the “composition of material in tumor” value in series [5] (24 hours after injection) was “demetallized but still contains phytyl”; in series [5] (48 hours after injection), “mainly material without phytyl and without Mg”. Moreover, the “time of partial conversion to bacteriopheophytin in tumor” value in series [5] (tumor) is at least 24 h. For the same compound, the necrotic depth entry in series [6] is given as “approximately 9 mm”.
